In the experiment the target is Metabotropic glutamate receptor 5 (Homo sapiens, UniProt P41594). Nature of the experiment: The Fluo 8-AM fluorescent dye is an […] derivative of Fluo 8 which can easily penetrate the cell membrane into the cell by culture. The fluorescent dye into the cell will be hydrolyzed by intracellular esterase, the resulting Fluo 8 cannot easily pass through the lipid bimolecular membrane as a polar molecule, and will retain in the cell, and combine with calcium (Ca2+) to produce fluoresces.Cells expressing GPCR receptor protein (mGluR5) were first calibrated with a calcium ion sensitive fluorescent probe and then stimulated with the compound. After stimulation, the activation of the receptor lead to the calcium ion mobilization, and the fluorescent probe captures the calcium ion to induce the fluorescence signal. The signal can be read by a fluorescent plate reader. The fluorescent plate reader contains a sampling head for compound addition, thus enabling the change of the fluorescence value of the compound be read in real time. It is filed as cell-based.
Chain of Metabotropic glutamate receptor 5 (P41594 whole entry): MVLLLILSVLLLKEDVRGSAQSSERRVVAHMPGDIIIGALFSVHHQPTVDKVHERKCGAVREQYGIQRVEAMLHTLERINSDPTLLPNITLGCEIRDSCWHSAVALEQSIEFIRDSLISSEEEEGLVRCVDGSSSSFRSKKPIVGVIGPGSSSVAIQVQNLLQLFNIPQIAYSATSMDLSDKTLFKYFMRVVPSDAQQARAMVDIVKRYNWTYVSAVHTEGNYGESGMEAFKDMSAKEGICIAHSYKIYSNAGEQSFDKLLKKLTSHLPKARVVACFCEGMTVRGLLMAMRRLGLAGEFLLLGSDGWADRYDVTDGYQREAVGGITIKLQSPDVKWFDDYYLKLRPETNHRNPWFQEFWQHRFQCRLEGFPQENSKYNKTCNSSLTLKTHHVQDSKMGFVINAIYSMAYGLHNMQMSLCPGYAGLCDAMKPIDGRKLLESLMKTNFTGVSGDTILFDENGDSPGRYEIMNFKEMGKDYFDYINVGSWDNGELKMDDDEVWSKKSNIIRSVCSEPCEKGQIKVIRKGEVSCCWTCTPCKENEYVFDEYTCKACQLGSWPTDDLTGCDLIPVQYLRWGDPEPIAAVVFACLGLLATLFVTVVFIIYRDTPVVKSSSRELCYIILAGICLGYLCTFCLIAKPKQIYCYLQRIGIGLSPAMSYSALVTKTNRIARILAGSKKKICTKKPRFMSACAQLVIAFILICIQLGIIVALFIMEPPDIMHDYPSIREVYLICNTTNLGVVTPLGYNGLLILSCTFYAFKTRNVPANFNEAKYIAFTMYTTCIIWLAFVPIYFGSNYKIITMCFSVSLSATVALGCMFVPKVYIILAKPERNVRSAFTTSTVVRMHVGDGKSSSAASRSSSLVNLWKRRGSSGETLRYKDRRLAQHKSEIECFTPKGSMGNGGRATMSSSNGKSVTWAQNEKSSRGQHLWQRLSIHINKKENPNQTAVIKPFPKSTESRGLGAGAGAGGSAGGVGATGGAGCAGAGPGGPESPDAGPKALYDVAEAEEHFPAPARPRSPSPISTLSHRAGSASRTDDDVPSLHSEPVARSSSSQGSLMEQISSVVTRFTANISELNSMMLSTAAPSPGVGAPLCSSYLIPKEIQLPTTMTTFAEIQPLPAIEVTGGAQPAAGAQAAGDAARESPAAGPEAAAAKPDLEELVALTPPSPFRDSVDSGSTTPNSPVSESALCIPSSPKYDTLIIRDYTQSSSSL

Regarding `Cc1nc(C#Cc2cccc(C(=O)Nc3cccnc3)c2)cs1`, the IC50 is 14.2 nM.
Then `Cc1nc(C#Cc2cccc(C(=O)N3CCc4ccccc4C3)c2)cs1`, with 14.4 nM.

The IC50 is the midpoint of a concentration-inhibition curve.

The record behind these values is ChEMBL document CHEMBL5727648, “5-aromatic alkynyl substituted benzamide compound and preparation method, pharmaceutical composition, and use thereof” (2020).
